Test results from patent US11873292B2, “Trans-indoline cyclopropylamine chemical compound, and method for preparation, pharmaceutical composition, and use thereof” (Shanghai Institute of Materia Medica, Chinese Academy of …, priority 2016, dated 2024).
Read-outs that look alike come from different tables or passages of the source.

What was measured:
Human recombinant LSD1 = Human recombinant LSD1 (Homo sapiens (Human), UniProt O60341); test: LSD1 in vitro activity assay (LANCE Ultra LSD1 Histone H3-Lysine 4 Demethylase Assay); format: biochemical; settings: LSD1 inhibition
Human recombinant MAOA = Human recombinant MAOA (Homo sapiens (Human), UniProt P21397); test: MAOA in vitro activity experiment (MAO-Glo); format: biochemical
Sequence of Human recombinant MAOA (P21397 whole entry): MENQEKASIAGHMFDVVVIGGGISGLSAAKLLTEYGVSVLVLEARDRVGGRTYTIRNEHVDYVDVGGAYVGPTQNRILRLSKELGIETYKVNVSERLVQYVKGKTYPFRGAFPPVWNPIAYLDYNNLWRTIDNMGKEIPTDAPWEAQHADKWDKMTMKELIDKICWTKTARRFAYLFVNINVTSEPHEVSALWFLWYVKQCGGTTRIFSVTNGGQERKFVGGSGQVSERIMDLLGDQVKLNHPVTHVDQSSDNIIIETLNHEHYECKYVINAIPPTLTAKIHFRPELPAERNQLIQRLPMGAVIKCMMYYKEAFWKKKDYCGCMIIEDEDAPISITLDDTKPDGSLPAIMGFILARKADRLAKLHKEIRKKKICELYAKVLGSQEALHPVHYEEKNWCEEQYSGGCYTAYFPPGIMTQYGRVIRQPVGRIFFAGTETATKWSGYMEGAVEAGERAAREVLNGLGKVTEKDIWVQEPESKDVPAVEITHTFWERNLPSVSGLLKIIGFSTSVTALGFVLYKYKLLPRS

human recombinant MAOB = human recombinant MAOB (Homo sapiens (Human), UniProt P27338); test: MAOB in vitro activity experiment (MAO-Glo); format: biochemical
Sequence of human recombinant MAOB (P27338 whole entry): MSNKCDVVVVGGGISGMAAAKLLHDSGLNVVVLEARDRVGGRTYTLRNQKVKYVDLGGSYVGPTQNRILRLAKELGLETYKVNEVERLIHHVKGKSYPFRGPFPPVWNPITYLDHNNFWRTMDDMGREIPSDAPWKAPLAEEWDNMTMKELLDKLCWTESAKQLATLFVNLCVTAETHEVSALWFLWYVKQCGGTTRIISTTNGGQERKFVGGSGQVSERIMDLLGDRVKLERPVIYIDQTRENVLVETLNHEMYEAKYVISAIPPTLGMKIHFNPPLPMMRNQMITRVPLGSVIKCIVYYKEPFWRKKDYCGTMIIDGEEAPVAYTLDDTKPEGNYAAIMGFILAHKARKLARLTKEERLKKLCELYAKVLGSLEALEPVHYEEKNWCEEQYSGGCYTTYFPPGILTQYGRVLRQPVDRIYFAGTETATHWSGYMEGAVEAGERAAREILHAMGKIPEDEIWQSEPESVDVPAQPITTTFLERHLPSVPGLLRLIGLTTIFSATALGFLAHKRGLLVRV

[1] = tested on: Leukemia cell line MV4-11; test: Growth-inhibitory activity by MTS method; format: cell-based; settings: Homo sapiens, MV4-11 cells
Source text: MTS assay was used to detect the growth inhibitory effect of tested compounds on leukemia cell MV (4:11), the principle of which was that succinate dehydrogenase in mitochondria in living cells can reduce exogenous thiazole blue to insoluble Blue crystalline Formazan.
MATERIALS: Leukemia cell line MV4-11: pediatric acute lymphocytic leukemia, immunological double phenotype, AF4-MLL fusion t (4,11), is a cell growth inhibitory cell line of LSD1 inhibitor (Cancer cell. 2012, 17; 21(4): 473-487).
1. MV4-11 cells in the logarithmic growth phase were taken, accurately counted 16000 cells/mL, and the diluted cell solution was added to a 96-well plate at 90 μL per well.
2. Fresh medium was taken and sequentially added to a 96-well plate with cell fluid, 90 μL per well.
3. In the compound plate, the compound to be tested at a concentration of 10 mM and the positive compounds ORY-1001 and GSK2879552 were taken and subjected to a 3-fold concentration gradient dilution with DMSO, 8 points for each.
4. 2 μL of the diluted compound was separately added to a 96-well plate containing 98 μL of blank medium, and DMSO group was added with 2 μL of DMSO into 98 μL of blank medium, and mixed for use.
5. The compound homogeneously mixed with the medium was separately added to a 96-well plate in which cells were plated in triplicate, 20 μL per well, and well mixed. In the blank group, 200 μL of IMDM medium was added, and in the DMSO group, 180 μL of the cell-containing medium in DMSO diluted with the medium was added.
6. […]
7. After 10 days, MTS was added and the values were read after 2.5 h of incubation.

O=S(=O)(c1ccccc1)N1CCc2cc([C@@H]3C[C@H]3NC3CCNCC3)ccc21 (relative stereo) [Compound A15, trans-N-(4-piperidinyl)-2-(1-(phenylsulfonyl)indolin-5-yl)cyclopropylamine]
IC50 (Human recombinant LSD1): 0.0227 ± 0.00037 µM | IC50 (Human recombinant MAOA): > 100 µM | IC50 (human recombinant MAOB): > 100 µM | IC50 ([1]; 3 D, read-out: MTS 3 D): 3.4 ± 1.64 µM | IC50 ([1]; 10 D, read-out: MTS 10 D): 0.18 ± 0.49 µM

O=S(=O)(c1ccccc1)N1CCc2cc([C@@H]3C[C@H]3NCCC3CCNCC3)ccc21 (relative stereo) [Compound A16, trans-N-(4-piperidinylethyl)-2-(1-(phenylsulfonyl)indolin-5-yl)cyclopropylamine]
IC50 (Human recombinant MAOA): > 100 µM | IC50 (human recombinant MAOB): > 100 µM | IC50 ([1]; 3 D, read-out: MTS 3 D): 8.25 ± 1.7 µM | IC50 ([1]; 10 D, read-out: MTS 10 D): 1.21 ± 0.4 µM

O=S(=O)(c1ccccc1)N1CCc2cc([C@@H]3C[C@H]3NCC3CNC3)ccc21 (relative stereo) [Compound A17, trans-N-(azetidin-3-ylmethyl)-2-(1-(phenylsulfonyl)indolin-5-yl)cyclopropylamine]
IC50 (Human recombinant MAOA): 16.2 ± 0.31 µM | IC50 (human recombinant MAOB): 9.22 ± 0.98 µM

O=S(=O)(c1ccccc1)N1CCc2cc([C@@H]3C[C@H]3NC3CC4(CCNCC4)C3)ccc21 (relative stereo) [Compound A20, trans-N-(2-(1-(phenylsulfonyl)indolin-5-yl)cyclopropyl)-7-azaspiro[3.5]nonane-2-amine]
IC50 (Human recombinant MAOA): > 100 µM | IC50 (human recombinant MAOB): > 100 µM

CC1(CN[C@@H]2C[C@H]2c2ccc3c(c2)CCN3S(=O)(=O)c2ccccc2)CCNCC1 (relative stereo) [Compound A21, trans-N-((4-methylpiperidin-4-yl)methyl)-2-(1-(phenylsulfonyl)indolin-5-yl)cyclopropylamine]
IC50 (Human recombinant MAOA): > 100 µM | IC50 (human recombinant MAOB): > 100 µM

O=S(=O)(c1ccccc1)N1CCc2cc([C@@H]3C[C@H]3NCC3CCN(Cc4ccccc4)CC3)ccc21 (relative stereo) [Compound A24, trans-N-((1-benzylpiperidin-4-yl)methyl)-2-(1-(phenylsulfonyl)indolin-5-yl)cyclopropylamine]
IC50 (Human recombinant MAOA): 15.9 ± 2 µM | IC50 (human recombinant MAOB): > 100 µM

O=S(=O)(c1ccc(-c2ccccc2)cc1)N1CCc2cc([C@@H]3C[C@H]3NCC3CCNCC3)ccc21 (relative stereo) [Compound A32, Trans-2-(1-(biphenyl-4-ylsulfonyl)indolin-5-yl)-N-(piperidin-4-ylmethyl)cyclopropylamine]
IC50 (Human recombinant MAOA): > 100 µM | IC50 (human recombinant MAOB): 89.4 ± 2.05 µM

O=S(=O)(c1ccc2ccccc2c1)N1CCc2cc([C@@H]3C[C@H]3NCC3CCNCC3)ccc21 (relative stereo) [Compound A33, Trans-2-(1-(naphthalen-2-ylsulfonyl)indolin-5-yl)-N-(piperidin-4-ylmethyl)cyclopropylamine]
IC50 (Human recombinant MAOA): 35.5 ± 0.87 µM | IC50 (human recombinant MAOB): 82 ± 1.39 µM

O=S(=O)(c1cccc(C(F)(F)F)c1)N1CCc2cc([C@@H]3C[C@H]3NCC3CCNCC3)ccc21 (relative stereo) [Compound A35, trans-N-(piperidin-4-ylmethyl)-2-(1-(3-(trifluoromethyl)benzenesulfonyl)indolin-5-yl)cyclopropylamine]
IC50 (Human recombinant MAOA): 49.8 ± 20.9 µM | IC50 (human recombinant MAOB): 86.2 ± 18.7 µM

O=S(=O)(c1cccc(Cl)c1)N1CCc2cc([C@@H]3C[C@H]3NCC3CCNCC3)ccc21 (relative stereo) [Compound A38, trans-2-(1-(3-chlorobenzenesulfonyl)indolin-5-yl)-N-(piperidin-4-ylmethyl)cyclopropylamine]
IC50 (Human recombinant MAOA): 73.9 ± 1.34 µM | IC50 (human recombinant MAOB): 40.9 ± 1.41 µM

COc1cccc(S(=O)(=O)N2CCc3cc([C@@H]4C[C@H]4NCC4CCNCC4)ccc32)c1 (relative stereo) [Compound A39, trans-2-(1-(3-methoxybenzenesulfonyl)indolin-5-yl)-N-(piperidin-4-ylmethyl)cyclopropylamine]
IC50 (Human recombinant MAOA): 38.6 ± 5.23 µM | IC50 (human recombinant MAOB): > 100 µM

CS(=O)(=O)N1CCc2cc([C@@H]3C[C@H]3NCC3CCNCC3)ccc21 (relative stereo) [Compound A40, Trans-2-(1-(methylsulfonyl)indolin-5-yl)-N-(piperidin-4-ylmethyl)cyclopropylamine]
IC50 (Human recombinant MAOA): > 100 µM | IC50 (human recombinant MAOB): > 100 µM

CCCS(=O)(=O)N1CCc2cc([C@@H]3C[C@H]3NCC3CCNCC3)ccc21 (relative stereo) [Compound A41, trans-N-(piperidin-4-ylmethyl)-2-(1-(propylsulfonyl)indolin-5-yl)cyclopropylamine]
IC50 (Human recombinant MAOA): > 100 µM | IC50 (human recombinant MAOB): > 100 µM | melting point: 187 to 191 °C

O=S(=O)(N1CCc2cc([C@@H]3C[C@H]3NCC3CCNCC3)ccc21)C(F)(F)F (relative stereo) [Compound A42, trans-N-(piperidin-4-ylmethyl)-2-(1-(trifluoromethanesulfonyl)indolin-5-yl)cyclopropylamine]
IC50 (Human recombinant MAOA): 86.6 ± 1.05 µM | IC50 (human recombinant MAOB): 3.14 ± 0.15 µM

O=S(=O)(C1CCCCC1)N1CCc2cc([C@@H]3C[C@H]3NCC3CCNCC3)ccc21 (relative stereo) [Compound A43, trans-2-(1-(cyclohexylsulfonyl)indolin-5-yl)-N-(piperidin-4-ylmethyl)cyclopropylamine]
IC50 (Human recombinant MAOA): > 100 µM | IC50 (human recombinant MAOB): > 100 µM

O=C(c1ccccc1)N1CCc2cc([C@@H]3C[C@H]3NCC3CCNCC3)ccc21 (relative stereo) [Compound A45, trans-phenyl (5-(2-(piperidin-4-ylmethylamino)cyclopropyl)indolin-1-yl)methanone]
IC50 (Human recombinant MAOA): > 100 µM | IC50 (human recombinant MAOB): 32.9 ± 1.24 µM | IC50 ([1]; 3 D, read-out: MTS 3 D): > 20 µM | IC50 ([1]; 10 D, read-out: MTS 10 D): 4.14 ± 3.47 µM

O=C(Cc1ccccc1)N1CCc2cc([C@@H]3C[C@H]3NCC3CCNCC3)ccc21 (relative stereo) [Compound A49, Trans-2-phenyl-1-(5-(2-(piperidin-4-ylmethylamino)cyclopropyl)indolin-1-yl)ethanone]
IC50 (Human recombinant MAOA): > 100 µM | IC50 (human recombinant MAOB): > 100 µM | IC50 ([1]; 3 D, read-out: MTS 3 D): > 20 µM | IC50 ([1]; 10 D, read-out: MTS 10 D): 3.23 ± 3.64 µM

CCC(=O)N1CCc2cc([C@@H]3C[C@H]3NCC3CCNCC3)ccc21 (relative stereo) [Compound A53, Trans-1-(5-(2-(piperidin-4-ylmethylamino)cyclopropyl)indolin-1-yl)propan-1-one]
IC50 (Human recombinant MAOA): > 100 µM | IC50 (human recombinant MAOB): > 100 µM

CCCC(=O)N1CCc2cc([C@@H]3C[C@H]3NCC3CCNCC3)ccc21 (relative stereo) [Compound A54, Trans-1-(5-(2-(piperidin-4-ylmethylamino)cyclopropyl)indolin-1-yl)butan-1-one]
IC50 (Human recombinant MAOA): > 100 µM | IC50 (human recombinant MAOB): > 100 µM

CCCCC(=O)N1CCc2cc([C@@H]3C[C@H]3NCC3CCNCC3)ccc21 (relative stereo) [Compound A55, Trans-1-(5-(2-(piperidin-4-ylmethylamino)cyclopropyl)indolin-1-yl)pentan-1-one]
IC50 (Human recombinant MAOA): > 100 µM | IC50 (human recombinant MAOB): > 100 µM

COCCC(=O)N1CCc2cc([C@@H]3C[C@H]3NCC3CCNCC3)ccc21 (relative stereo) [Compound A56, Trans-3-methoxy-1-(5-(2-(piperidin-4-ylmethylamino)cyclopropyl)indolin-1-yl)propan-1-one]
IC50 (Human recombinant LSD1): 0.0269 ± 0.0221 µM | IC50 (Human recombinant MAOA): > 100 µM | IC50 (human recombinant MAOB): > 100 µM

CC(C)(C)C(=O)N1CCc2cc([C@@H]3C[C@H]3NCC3CCNCC3)ccc21 (relative stereo) [Compound A58, Trans-2,2-dimethyl-1-(5-(2-(piperidin-4-ylmethylamino)cyclopropyl)indolin-1-yl)propan-1-one]
IC50 (Human recombinant MAOA): > 100 µM | IC50 (human recombinant MAOB): 70.7 ± 12.6 µM | IC50 ([1]; 3 D, read-out: MTS 3 D): > 20 µM | IC50 ([1]; 10 D, read-out: MTS 10 D): 1.23 ± 1.13 µM

O=C(C1CCCCC1)N1CCc2cc([C@@H]3C[C@H]3NCC3CCNCC3)ccc21 (relative stereo) [Compound A59, Trans-cyclohexyl (5-(2-(piperidin-4-ylmethylamino)cyclopropyl)indolin-1-yl)methanone]
melting point: 166 to 168 °C

O=S(=O)(c1ccccc1)N1CCc2cc(C3CC3NCc3c[nH]c4ccccc34)ccc21 (stereo not shown) [Compound A8]
IC50 ([1]; 3 D, read-out: MTS 3 D): 1.25 ± 0.51 µM | IC50 ([1]; 10 D, read-out: MTS 10 D): 0.6 ± 0.13 µM

O=S(=O)(c1ccccc1)N1CCc2cc(C3CC3NCC3CCNCC3)ccc21 (stereo not drawn) [Compound A14, trans-N-(4-piperidinylmethylene)-2-(1-(phenylsulfonyl)indolin-5-yl)cyclopropylamine]
IC50 ([1]; 3 D, read-out: MTS 3 D): 7.91 ± 1.61 µM | IC50 ([1]; 10 D, read-out: MTS 10 D): 1.36 ± 0.92 µM

NC1CCC(CNC2CC2c2ccc3c(c2)CCN3S(=O)(=O)c2ccccc2)CC1 (stereo not drawn) [Compound A18, trans-4-((2-(1-(phenylsulfonyl)indolin-5-yl)cyclopropylamino)methyl)cyclohexylamine]
IC50 (Human recombinant MAOA): 96.3 ± 2.05 µM

NC1CCC(NC2CC2c2ccc3c(c2)CCN3S(=O)(=O)c2ccccc2)CC1 (stereo not drawn) [Compound A19, trans-N1-(2-(1-(phenylsulfonyl)indolin-5-yl)cyclopropyl)cyclohexane-1,4-diamine]
IC50 ([1]; 3 D, read-out: MTS 3 D): 8.55 ± 1.84 µM | IC50 ([1]; 10 D, read-out: MTS 10 D): 1.16 ± 0.26 µM

O=C(O)c1ccc(CN2CCC(CN[C@@H]3C[C@H]3c3ccccc3)CC2)cc1 [GSK2879552, GSK-2879552, reference compound]
IC50 (Human recombinant LSD1): 0.404 ± 0.0308 µM | IC50 (Human recombinant MAOA): > 100 µM | IC50 (human recombinant MAOB): > 100 µM | IC50 ([1]; 3 D, read-out: MTS 3 D): > 20 µM | IC50 ([1]; 10 D, read-out: MTS 10 D): 1.81 µM
